Measurements: ChEMBL document CHEMBL3399977, “Design, synthesis and preliminary bioactivity studies of 2-thioxo-4-thiazolidinone derivatives as Bcl-2 inhibitors” (Bioorg Med Chem, 2015)

Tests used:
[1] = target: Apoptosis regulator Bcl-2 (Homo sapiens, UniProt P10415); assay: Inhibition of Bcl-2 (unknown origin) using 5-FAM-Bid-BH3 as substrate preincubated for 30 mins before substrate addition measured after 20 mins by fluorescence polarization technique
[2] = target: Bcl-2-like protein 1 (Homo sapiens, UniProt Q07817); assay: Inhibition of Bcl-XL (unknown origin) using 5-FAM-Bid-BH3 as substrate preincubated for 30 mins before substrate addition measured after 20 mins by fluorescence polarization technique
[3] = target: Induced myeloid leukemia cell differentiation protein Mcl-1 (Homo sapiens, UniProt Q07820); assay: Inhibition of Mcl-1 (unknown origin) using 5-FAM-Bid-BH3 as substrate preincubated for 30 mins before substrate addition measured after 20 mins by fluorescence polarization technique
[4] = test system: MDA-MB-231; assay: Antiproliferative activity against human MDA-MB-231 cells after 48 hrs by MTT assay; format: functional, cell-based; conditions: MDA-MB-231, 48 h
[5] = cells; conditions: Homo sapiens, PC-3, 48 h
[6] = test system: K562; assay: cells; conditions: Homo sapiens, K562, 48 h

Induced myeloid leukemia cell differentiation protein Mcl-1, sequence (Q07820 whole entry): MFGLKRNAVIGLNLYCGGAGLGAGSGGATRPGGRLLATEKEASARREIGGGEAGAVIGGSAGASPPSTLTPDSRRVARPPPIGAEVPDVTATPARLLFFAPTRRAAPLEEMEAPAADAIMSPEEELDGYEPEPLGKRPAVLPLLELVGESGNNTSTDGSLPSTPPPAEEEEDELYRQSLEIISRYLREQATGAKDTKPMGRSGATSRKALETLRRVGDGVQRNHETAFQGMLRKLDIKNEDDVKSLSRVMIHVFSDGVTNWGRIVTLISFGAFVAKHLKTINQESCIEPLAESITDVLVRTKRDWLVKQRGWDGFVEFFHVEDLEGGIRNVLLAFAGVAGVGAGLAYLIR
Bcl-2-like protein 1, sequence (Q07817 whole entry): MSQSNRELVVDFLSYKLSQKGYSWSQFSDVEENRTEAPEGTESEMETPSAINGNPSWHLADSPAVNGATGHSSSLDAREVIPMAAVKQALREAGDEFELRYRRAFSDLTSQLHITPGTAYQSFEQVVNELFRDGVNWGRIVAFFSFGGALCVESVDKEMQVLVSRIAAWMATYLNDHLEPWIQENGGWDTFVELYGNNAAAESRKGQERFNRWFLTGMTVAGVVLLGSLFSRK
Apoptosis regulator Bcl-2, sequence (P10415 whole entry): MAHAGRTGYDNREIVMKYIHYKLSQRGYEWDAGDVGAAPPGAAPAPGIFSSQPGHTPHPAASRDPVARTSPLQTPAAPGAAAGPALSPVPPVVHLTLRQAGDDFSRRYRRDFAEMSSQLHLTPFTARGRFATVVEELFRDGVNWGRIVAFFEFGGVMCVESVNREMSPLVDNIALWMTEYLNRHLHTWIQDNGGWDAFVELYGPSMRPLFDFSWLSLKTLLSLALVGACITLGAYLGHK

Row | SMILES | Ki [1] | also measured
1 | CC(C)[C@@H](C(=O)NS(=O)(=O)c1ccccc1)N1C(=O)/C(=C/c2ccc(-c3ccccc3)cc2)SC1=S | 630 nM | 
2 | O=C(NS(=O)(=O)c1ccccc1)[C@H](Cc1c[nH]c2ccccc12)N1C(=O)/C(=C/c2ccc(-c3ccccc3)cc2)SC1=S | 730 nM | 
3 | C[C@@H](C(=O)NS(=O)(=O)c1ccccc1)N1C(=O)/C(=C/c2ccc(-c3ccccc3)cc2)SC1=S | 2400 nM | 
4 | CSCC[C@@H](C(=O)NS(=O)(=O)c1ccccc1)N1C(=O)/C(=C/c2ccc(-c3ccccc3)cc2)SC1=S | 950 nM | 
5 | O=C(NS(=O)(=O)c1ccc(Cl)c([N+](=O)[O-])c1)[C@H](Cc1ccccc1)N1C(=O)/C(=C/c2ccc(-c3ccc(Cl)cc3)cc2)SC1=S | 1900 nM | 
6 | O=C(NS(=O)(=O)c1ccc(Cl)c([N+](=O)[O-])c1)[C@H](Cc1ccccc1)N1C(=O)/C(=C/c2ccc(-c3ccc([N+](=O)[O-])cc3)cc2)SC1=S | 2400 nM | 
7 | O=C(NS(=O)(=O)c1ccc([N+](=O)[O-])cc1)[C@H](Cc1ccccc1)N1C(=O)/C(=C/c2ccc(-c3ccc(Cl)cc3)cc2)SC1=S | 660 nM | 
8 | COC(=O)c1ccc(-c2ccc(/C=C3\SC(=S)N([C@@H](Cc4ccccc4)C(=O)NS(=O)(=O)c4ccc(Cl)c([N+](=O)[O-])c4)C3=O)cc2)cc1 | 1400 nM | 
9 | O=C(NS(=O)(=O)c1ccc([N+](=O)[O-])cc1)[C@H](Cc1ccccc1)N1C(=O)/C(=C/c2ccc(-c3ccc([N+](=O)[O-])cc3)cc2)SC1=S | 800 nM | 
10 | O=C(NS(=O)(=O)c1ccc(Cl)c([N+](=O)[O-])c1)[C@H](Cc1ccccc1)N1C(=O)/C(=C/c2ccc(-c3ccc(C(F)(F)F)cc3)cc2)SC1=S | 870 nM | 
11 | O=C(NS(=O)(=O)c1ccc([N+](=O)[O-])cc1)[C@H](Cc1ccccc1)N1C(=O)/C(=C/c2ccc(-c3ccc(C(F)(F)F)cc3)cc2)SC1=S | 850 nM | 
12 | O=C(NS(=O)(=O)c1ccc(Cl)c([N+](=O)[O-])c1)[C@H](Cc1ccc(Br)cc1)N1C(=O)/C(=C/c2ccc(-c3ccc([N+](=O)[O-])cc3)cc2)SC1=S | > 50000 nM | 
13 | O=C(NS(=O)(=O)c1ccc(Cl)c([N+](=O)[O-])c1)[C@H](Cc1ccc(Br)cc1)N1C(=O)/C(=C/c2ccc(-c3ccc(Cl)cc3)cc2)SC1=S | 700 nM | 
14 | O=C(NS(=O)(=O)c1ccc([N+](=O)[O-])cc1)[C@H](Cc1ccc(Br)cc1)N1C(=O)/C(=C/c2ccc(-c3ccc(Cl)cc3)cc2)SC1=S | 710 nM | Ki ([2]; read-out: Ki): 490 nM; Ki [3]: 63 nM; IC50 [4]: 28600 nM; IC50 [5]: 24100 nM; IC50 [6]: 9440 nM
15 | O=C(NS(=O)(=O)c1ccc(Cl)c([N+](=O)[O-])c1)[C@H](Cc1ccc(Br)cc1)N1C(=O)/C(=C/c2ccc(-c3ccc(C(F)(F)F)cc3)cc2)SC1=S | 1200 nM | 
16 | O=C(NS(=O)(=O)c1ccc([N+](=O)[O-])cc1)[C@H](Cc1ccc(Br)cc1)N1C(=O)/C(=C/c2ccc(-c3ccc(C(F)(F)F)cc3)cc2)SC1=S | 900 nM | 
17 | O=C(NS(=O)(=O)c1ccc(Cl)c([N+](=O)[O-])c1)[C@H](Cc1c[nH]c2ccccc12)N1C(=O)/C(=C/c2ccc(-c3ccc(Cl)cc3)cc2)SC1=S | 5600 nM | 
18 | O=C(NS(=O)(=O)c1ccc(Cl)c([N+](=O)[O-])c1)[C@H](Cc1c[nH]c2ccccc12)N1C(=O)/C(=C/c2ccc(-c3ccc([N+](=O)[O-])cc3)cc2)SC1=S | 750 nM | 
19 | O=C(NS(=O)(=O)c1ccc([N+](=O)[O-])cc1)[C@H](Cc1c[nH]c2ccccc12)N1C(=O)/C(=C/c2ccc(-c3ccc(Cl)cc3)cc2)SC1=S | 680 nM | 
20 | O=C(NS(=O)(=O)c1ccc([N+](=O)[O-])cc1)[C@H](Cc1c[nH]c2ccccc12)N1C(=O)/C(=C/c2ccc(-c3ccc(C(F)(F)F)cc3)cc2)SC1=S | 750 nM | 
21 | Cc1ccc(-c2ccc(/C=C3\SC(=S)N([C@@H](Cc4c[nH]c5ccccc45)C(=O)NS(=O)(=O)c4ccc([N+](=O)[O-])cc4)C3=O)cc2)cc1 | 720 nM | 
22 | Cc1ccc(S(=O)(=O)NC(=O)[C@H](Cc2ccccc2)N2C(=O)/C(=C/c3ccc(-c4ccccc4)cc3)SC2=S)cc1 | 720 nM | Ki ([2]; read-out: Ki): 660 nM; Ki [3]: 250 nM
23 | Cc1cc2c(C(C)C)c(O)c(O)c(C=O)c2c(O)c1-c1c(C)cc2c(C(C)C)c(O)c(O)c(C=O)c2c1O [GOSSYPOL] |  | IC50 [4]: 9210 nM; IC50 [5]: 6260 nM; IC50 [6]: 4550 nM

More lines, in order of falling Ki [1], values ahead:

Row | Ki [1] | SMILES | also measured
24 | 540 nM | O=C(NS(=O)(=O)c1ccccc1)[C@H](Cc1c[nH]c2ccccc12)N1C(=O)/C(=C/c2ccc(-c3ccc([N+](=O)[O-])cc3)cc2)SC1=S | 
25 | 540 nM | O=C(NS(=O)(=O)c1ccc(Cl)c([N+](=O)[O-])c1)[C@H](Cc1ccccc1)N1C(=O)/C(=C/c2ccc(-c3ccccc3)cc2)SC1=S | 
26 | 520 nM | O=C(NS(=O)(=O)c1ccccc1)[C@H](Cc1ccc(Br)cc1)N1C(=O)/C(=C/c2ccc(-c3ccccc3)cc2)SC1=S | 
27 | 510 nM | O=C(NS(=O)(=O)c1ccc(Cl)cc1)[C@H](Cc1ccccc1)N1C(=O)/C(=C/c2ccc(-c3ccccc3)cc2)SC1=S | 
28 | 470 nM | O=C(NS(=O)(=O)c1ccccc1)[C@H](Cc1ccc(Br)cc1)N1C(=O)/C(=C/c2ccc(-c3ccc(Cl)cc3)cc2)SC1=S | Ki ([2]; read-out: Ki): 390 nM; Ki [3]: 66 nM; IC50 [4]: 28800 nM; IC50 [5]: > 50000 nM; IC50 [6]: 20900 nM
29 | 470 nM | O=C(NS(=O)(=O)c1ccccc1)[C@H](Cc1c[nH]c2ccccc12)N1C(=O)/C(=C/c2ccc(-c3ccc(Cl)cc3)cc2)SC1=S | 
30 | 460 nM | O=C(NS(=O)(=O)c1ccccc1)[C@H](Cc1ccccc1)N1C(=O)/C(=C/c2ccc(-c3ccc([N+](=O)[O-])cc3)cc2)SC1=S | 
31 | 460 nM | COC(=O)c1ccc(-c2ccc(/C=C3\SC(=S)N([C@@H](Cc4ccc(Br)cc4)C(=O)NS(=O)(=O)c4ccccc4)C3=O)cc2)cc1 | 
32 | 450 nM | O=C(NS(=O)(=O)c1ccc([N+](=O)[O-])cc1)[C@H](Cc1ccccc1)N1C(=O)/C(=C/c2ccc(-c3ccccc3)cc2)SC1=S | 
33 | 420 nM | O=C(NS(=O)(=O)c1ccccc1)[C@H](Cc1ccc(Br)cc1)N1C(=O)/C(=C/c2ccc(-c3ccc([N+](=O)[O-])cc3)cc2)SC1=S | Ki ([2]; read-out: Ki): 540 nM; Ki [3]: 86 nM; IC50 [4]: 46200 nM; IC50 [5]: > 50000 nM; IC50 [6]: > 50000 nM
34 | 410 nM | CC[C@H](C)[C@@H](C(=O)NS(=O)(=O)c1ccccc1)N1C(=O)/C(=C/c2ccc(-c3ccccc3)cc2)SC1=S | 
35 | 360 nM | O=C(NS(=O)(=O)c1ccc([N+](=O)[O-])cc1)[C@H](Cc1ccc(Br)cc1)N1C(=O)/C(=C/c2ccc(-c3ccc([N+](=O)[O-])cc3)cc2)SC1=S | Ki [2]: Not Active; Ki [3]: 74 nM; IC50 [4]: 30400 nM; IC50 [5]: 40700 nM; IC50 [6]: 7900 nM
36 | 80 nM | O=C(NS(=O)(=O)c1ccc([N+](=O)[O-])cc1)[C@H](Cc1c[nH]c2ccccc12)N1C(=O)/C(=C/c2ccc(-c3ccc([N+](=O)[O-])cc3)cc2)SC1=S | 
